Measured values taken from PMC8023712, “Carboxylesterase Activities and Protein Expression in Rabbit and Pig Ocular Tissues” (Molecular Pharmaceutics, 2021).
“And” between values parts separate entries of the source, which are not always exact repeats. Equal values may be shown once. Read-outs that look alike come from different tables or passages of the source.

Legend:
[1] = test system: esterases in pig cornea homogenate (NPA hydrolysis); assay: Inhibition of NPA hydrolysis in pig cornea; format: biochemical; conditions: 0.1 mM NPA; for IC50: for PMSF no unique IC50, concentration giving 50% inhibition, read-out: IC50 (this study), inhibition of NPA hydrolysis
Procedure: (§1) NPA hydrolysis was performed with a slight modification to our previous protocol[22] in clear flat-bottom 96-well Thermo Scientific Sterilin Microtiter plates at 37 °C. Diluted ocular samples (8 μg of protein in 80 μL of PBS) were pipetted into the reaction wells, and the background absorbance was measured at 405 nm for 10 min of preincubation. […] Changes in absorbance at 405 nm were recorded with a Victor^2 Microplate Reader (PerkinElmer Wallac 1420, St. Paul, MN) for 45 min with 90 s reading intervals. 4-Nitrophenol was used to generate a standard curve (5–400 μM).
(§2) Inhibitors were tested at a final concentration range of 0.4–400 μM except for PMSF (0.3–2.5 mM).
(§3) The differences among hydrolytic activities were analyzed by ANOVA using the SigmaPlot software (Sigma Plot 13.0, Systat Software Inc., San Jose, CA), followed by Mann–Whitney U test for statistical comparisons between species and between tissues. Between species, statistically significant differences are ranked by the asterisk signs (in the order of *, p < 0.05; **, p < 0.01, and *** p < 0.001). Between tissues of the same species, statistically significant differences in comparison to conjunctiva are represented by the dagger sign (†, p < 0.05). Nonlinear regression analysis to determine the Km, Vmax, and IC50 values were done using GraphPad Prism (GraphPad, 5.04 Software Inc., San Diego, CA). For IC50, logarithms of inhibitor concentrations were plotted against the relative response (0 μM inhibitor = 100%).

[2] = biological target: CES1 (DME hydrolysis in pig cornea and conjunctiva) (Sus scrofa, UniProt F1RF16); assay: Inhibition of DME hydrolysis in pig cornea and conjunctiva; format: biochemical; conditions: 5 μM DME, at 200 μM inhibitor, read-out: Extent of inhibition of DME hydrolysis
Procedure: (§4) The hydrolysis of DME was monitored with slight modifications using the published bioluminescence-based assay[13],[21] where recombinant firefly luciferase enzyme was used to detect the D-luciferin that formed in the reaction mixture. The DME hydrolysis reaction was done in white-coated 96-well plates (Thermo Scientific Sterilin Microtiter Plates). Tissue lysates (5 μg of protein) were preincubated in 0.1 M PBS, pH 6.5. The reaction was initiated by adding DME to a final concentration of 5 μM in a final volume of 200 μL. The hydrolysis of DME was allowed to proceed for 20 min at 37 °C. The formed D-luciferin was quantitated by an injection of 73 μL of the luciferase detection reagent [3 μg of rLuciferase, 50 nmol of ATP, and 50 nmol of MgCl2 in PBS], and the luminescence was measured immediately with a Victor^2 Microplate Reader (560 nm, 1 s). Serial 2-fold dilutions of D-luciferin in 0.1 M PBS, pH 6.5 were used to generate the standard curve (0.156–10 μM).
as §2
(§5) The differences among hydrolytic activities were analyzed by ANOVA using the SigmaPlot software (Sigma Plot 13.0, Systat Software Inc., San Jose, CA), followed by Mann–Whitney U test for statistical comparisons between species and between tissues. […]

[3] = test system: CES1 (DME hydrolysis in rabbit cornea and conjunctiva); assay: Inhibition of DME hydrolysis in rabbit cornea and conjunctiva; format: biochemical; conditions: 5 μM DME, at 200 μM inhibitor
Procedure: as §4, §2, §5

[4] = test system: esterases in rabbit cornea, iris–ciliary body and aqueous humor; set-up: method as in PMID 16223870; conditions: 1000 μM; cited from earlier work
[5] = test system: CES2 (FDA hydrolysis in pig retina); assay: Inhibition of FDA hydrolysis in pig retina; format: biochemical; conditions: 10 μM FDA
Procedure: Diluted samples (5 μg of protein) were incubated at 37 °C in black 96-well Thermo Scientific Nunc F96 MicroWell plates. […] The fluorescein stock solution was used to generate a standard curve (0.156–10 μM) using 2-fold serial dilutions in 0.1 M PBS, pH 7.4.
as §2, §3

[6] = test system: rhCES2; conditions: cited from earlier work
[7] = biological target: CES2 > CES1 (HLM); set-up: method as in PMID 23648675, PMID 32955894; conditions: read-out: Ki (literature); cited from earlier work
[8] = test system: CES2 (rabbit ocular tissue homogenates); assay: Procaine hydrolysis to PABA in rabbit ocular tissues; format: in vitro ADME; conditions: 100 μM procaine
Procedure: (§6) Procaine, a known human CES2 substrate,[2],[17],[50] was incubated with rabbit and pig ocular tissues. After preincubation of the substrate (100 μM procaine in 0.1 M Tris-HCl, pH 7.4) at 37 °C, the reaction was initiated with tissue samples (20 μg of protein) in a total reaction volume of 200 μL. All the samples in parallel with the controls (no substrate or no enzyme) were incubated for 50 min at 37 °C on a shaker incubator (Heidolph Titramax 1000 platform shaker, Berlin Germany). The reaction was terminated by adding 200 μL of ice-cold ACN containing the internal standard procainamide (1 μM final concentration), followed by centrifugation at 4 °C for 10 min at 10 000g. Supernatants were collected for HPLC analysis. The standard curve was established using the hydrolysis product PABA with the concentration range 0.1–1000 nM.[51]
(§7) The metabolites from the above CES2 and AADAC assays were analyzed using a Waters (Milford, MA) Acquity ultra-performance liquid chromatographic (UPLC) coupled with a Q-Exactive Focus Orbitrap MS (Thermo Scientific). A Waters HSS T3 column (2.1 mm × 100 mm, 1.8 μm particle size) was used with elution gradients A (0.1% formic acid) and B (methanol) [0–0.5 min, 1% B; 0.5–4 min, 1%–20% B; 4–4.5 min, 20%–98% B; 4.5–5 min, 98% B; and 5–6 min, 98%–1% B]. The injection volume was 2 μL with a flow rate of 0.5 mL/min and a column temperature of 40 °C. […]

[9] = test system: CES2 (pig ocular tissue homogenates); assay: Procaine hydrolysis to PABA in pig ocular tissues; format: in vitro ADME; conditions: 100 μM procaine
Procedure: as §6, §7

[10] = test system: multiple esterases (rabbit ocular tissue homogenates); assay: NPA hydrolysis in rabbit ocular tissue homogenates; format: in vitro ADME; conditions: for NPA hydrolysis rate: 400 μM NPA
Procedure: as §1, with “St.” for “St. Paul, MN) for 45 min with 90 s reading intervals. 4-Nitrophenol was used to generate a standard curve (5–400 μM).”

[11] = test system: multiple esterases (pig ocular tissue homogenates); assay: NPA hydrolysis in pig ocular tissue homogenates; format: in vitro ADME; conditions: for NPA hydrolysis rate: 400 μM NPA
Procedure: as §1, with “St.” for “St. Paul, MN) for 45 min with 90 s reading intervals. 4-Nitrophenol was used to generate a standard curve (5–400 μM).”

[12] = test system: multiple esterases (HLM); conditions: NPA, read-out: Km literature data; cited from earlier work
[13] = test system: multiple esterases (rabbit cornea); conditions: NPA, read-out: Km literature data; cited from earlier work
[14] = test system: pig liver CES1; conditions: NPA, read-out: Km literature data; cited from earlier work
[15] = test system: CES2 (rabbit ocular tissue homogenates); conditions: for FDA hydrolysis rate: 100 μM FDA
[16] = test system: CES2 (pig ocular tissue homogenates); conditions: for FDA hydrolysis rate: 100 μM FDA
[17] = test system: AADAC (rabbit ocular tissue homogenates); assay: Phenacetin hydrolysis to p-phenetidine in rabbit ocular tissues; format: in vitro ADME; conditions: 4 mM phenacetin, below detection limit
Procedure: (§8) Phenacetin, a specific substrate for human AADAC,[18],[19],[24] was incubated with ocular tissue homogenates. The substrate (4 mM, final concentration) was preincubated in the 0.1 M Tris-HCl, pH 7.4, buffer at 37 °C for 5 min, after which the tissue samples (20 μg of protein) were added to start the reaction in the total reaction volume of 200 μL. All the reaction and control samples were incubated for 50 min at 37 °C with shaking. The reaction was terminated by adding 200 μL of ice-cold ACN containing acetaminophen at an 1 μM final concentration as the internal standard, followed by centrifugation at 4 °C for 10 min at 10 000g. A standard curve using the metabolite p-phenetidine (0.1–100 μM)[24] was established. The protein amount and incubation time were optimized from earlier pilot experiments for both procaine and phenacetin hydrolysis reactions. All incubations were performed in triplicate including the controls (control with no sample, control with no substrate), and the data are expressed as mean ± SD.
(§9) The metabolites from the above CES2 and AADAC assays were analyzed using a Waters (Milford, MA) Acquity ultra-performance liquid chromatographic (UPLC) coupled with a Q-Exactive Focus Orbitrap MS (Thermo Scientific). […]

[18] = test system: AADAC (pig ocular tissue homogenates); assay: Phenacetin hydrolysis to p-phenetidine in pig ocular tissues; format: in vitro ADME; conditions: 4 mM phenacetin, below detection limit
Procedure: as §8, §9

[19] = test system: most esterases; conditions: cited from earlier work

CES1 (DME hydrolysis in pig cornea and conjunctiva), sequence (F1RF16 19-530): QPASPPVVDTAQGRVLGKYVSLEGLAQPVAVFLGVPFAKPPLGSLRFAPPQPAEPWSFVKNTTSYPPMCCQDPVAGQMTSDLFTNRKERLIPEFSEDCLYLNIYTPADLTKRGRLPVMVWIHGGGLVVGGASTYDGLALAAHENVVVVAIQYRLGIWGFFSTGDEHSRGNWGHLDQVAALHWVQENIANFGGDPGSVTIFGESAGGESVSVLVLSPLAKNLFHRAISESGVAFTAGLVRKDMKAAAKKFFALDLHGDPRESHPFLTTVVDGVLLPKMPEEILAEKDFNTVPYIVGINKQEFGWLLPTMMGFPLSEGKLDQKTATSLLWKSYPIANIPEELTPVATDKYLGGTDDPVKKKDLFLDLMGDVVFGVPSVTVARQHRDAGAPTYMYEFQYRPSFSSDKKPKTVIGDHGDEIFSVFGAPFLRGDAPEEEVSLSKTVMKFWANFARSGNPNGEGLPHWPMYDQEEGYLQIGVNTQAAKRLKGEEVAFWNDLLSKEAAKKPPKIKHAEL

C[C@@H]1CC[C@@]2(OC1)O[C@H]1[C@@H](O)[C@H]3[C@@H]4CC[C@H]5C[C@@H](O[C@@H]6O[C@H](CO)[C@H](O[C@@H]7O[C@H](CO)[C@@H](O)[C@H](O[C@@H]8OC[C@@H](O)[C@H](O)[C@H]8O)[C@H]7O[C@@H]7O[C@H](CO)[C@H](O)[C@H](O[C@@H]8O[C@H](CO)[C@@H](O)[C@H](O)[C@H]8O)[C@H]7O)[C@H](O)[C@H]6O)[C@H](O)C[C@]5(C)[C@H]4CC[C@]3(C)[C@H]1[C@@H]2C [digitonin]
IC50 [1]: 38 µM
Extent of inhibition of NPA hydrolysis (maximal) ([1]; highest inhibitor concentration 400 μM (PMSF 2.5 mM)): ~40%
inhibition at 200 µM [2]: 15%
Extent of inhibition of DME hydrolysis [3]: 30%

O=C(O)c1cc[c]([Hg][Cl])cc1 [p-chloromercuribenzoate]
Inhibition of naphthyl acetate hydrolysis [4]: 10%–30%

COc1ccc(CCN(C)CCCC(C#N)(c2ccc(OC)c(OC)c2)C(C)C)cc1OC (stereo not drawn) [verapamil]
Extent of inhibition of FDA hydrolysis [5]: no inhibition
IC50 ([6]; rhCES2, read-out: IC50 (literature)): 7.94 µM
Ki ([6]; rhCES2, read-out: Ki (literature)): 3.84 ± 0.99 µM
Ki [7]: 11.5 ± 1.2 µM

COc1ccc([C@@H]2Sc3ccccc3N(CCN(C)C)C(=O)[C@@H]2OC(C)=O)cc1 [diltiazem]
Ki [7]: 2.89 ± 0.39 µM

CCN(CC)CCOC(=O)c1ccc(N)cc1 [procaine]
Procaine hydrolysis rate (PABA formation) ([8]; rabbit aqueous humor and conjunctiva): 0.04 to 0.1 nmol/min/mg
Procaine hydrolysis rate (PABA formation) ([8]; rabbit cornea, vitreous, RPE and choroid): 0.2 to 0.3 nmol/min/mg
Procaine hydrolysis rate (PABA formation) ([9]; pig aqueous humor (lowest)): 0.02 nmol/min/mg
Procaine hydrolysis rate (PABA formation) ([9]; pig retina (highest)): 0.09 nmol/min/mg

CC(=O)Oc1ccc([N+](=O)[O-])cc1 [NPA, 4-Nitrophenyl acetate]
Km ([10]; NPA hydrolysis in rabbit cornea, read-out: Km (this study)): 263 ± 15 µM
NPA hydrolysis rate ([10]; rabbit RPE): 17.5 ± 2.7 nmol/min/mg
NPA hydrolysis rate ([10]; rabbit choroid): 81.6 ± 6.8 nmol/min/mg
NPA hydrolysis rate ([10]; rabbit, most ocular tissue homogenates, 37 °C): 30–45 nmol/min/mg protein
Km ([11]; NPA hydrolysis in pig cornea, read-out: Km (this study)): 125 ± 13 µM
NPA hydrolysis rate ([11]; pig RPE): 8.4 ± 1.0 nmol/min/mg
NPA hydrolysis rate ([11]; pig, all ocular tissues except RPE): around 20 nmol/min/mg
Km [12]: 198 ± 17 µM
Km [13]: 68 ± 15 µM
Km [14]: 520 ± 60 µM

CC(=O)Oc1ccc2c(c1)Oc1cc(OC(C)=O)ccc1C21OC(=O)c2ccccc21 [FDA, fluorescein diacetate]
FDA hydrolysis rate ([15]; rabbit RPE, aqueous humor and vitreous): 0.1 to 0.2 nmol/min/mg
FDA hydrolysis rate ([15]; rabbit choroid, cornea and conjunctiva): > 1.0 nmol/min/mg
FDA hydrolysis rate ([15]; rabbit retina): 0.5 to 1 nmol/min/mg
Km ([15]; read-out: Km (this study), FDA hydrolysis in rabbit cornea): 5.5 ± 0.4 µM
FDA hydrolysis rate ([16]; most pig ocular tissues (except retina)): < 0.1 nmol/min/mg
FDA hydrolysis rate ([16]; pig retina): 0.6 ± 0.1 nmol/min/mg
Km ([16]; read-out: Km (this study), FDA hydrolysis in pig retina): 16 ± 1.6 µM

CC(C)(C)NC[C@H](O)COc1nsnc1N1CCOCC1 [timolol]
Extent of inhibition of FDA hydrolysis [5]: no inhibition
inhibition (literature, printed in IC50 column) ([6]; main human enzyme CES2, at 200 μM): 20% inhibition at 200 μM

O=C(O)CN(CCN(CC(=O)O)CC(=O)O)CC(=O)O [EDTA]
Inhibition of naphthyl acetate hydrolysis [4]: 10%–30%

CCOc1ccc(NC(C)=O)cc1 [phenacetin]
Phenacetin hydrolysis rate (p-phenetidine formation) [17]: undetectable
Phenacetin hydrolysis rate (p-phenetidine formation) ([17]; listed as Phenacetin): < 0.1 pmol/min/mg
Phenacetin hydrolysis rate (p-phenetidine formation) [18]: undetectable
Phenacetin hydrolysis rate (p-phenetidine formation) ([18]; listed as Phenacetin): < 0.1 pmol/min/mg

O=S(=O)(F)Cc1ccccc1 [PMSF, phenylmethylsulfonyl fluoride]
IC50 [1]: 200 µM and ~200 µM
IC50 ([19]; most esterases, read-out: IC50 (literature)): 541 µM
Ki ([19]; most esterases, read-out: Ki (literature)): 560 µM
IC50 ([19]; other tissues, read-out: reported IC50 value in other tissues): ~500 µM
